Source: patent US10501479B2, “Benzenesulfonyl-asymmetric ureas and medical uses thereof” (HELSINN HEALTHCARE SA, priority 2016, dated 2019)

Columns and labels:
[1] = Metabolic stability in human liver microsomes; format: in vitro ADME
Experimental: (§1) Metabolic Stability Study
(§2) The metabolic stability of compounds in human, dog, rat and mouse liver microsomes was performed according the experimental conditions reported below:
(§3) • a) Prepare the following 5 stock solutions: • 1. Test compound stock solutions: dilute 10 mM solution of dextromethorphan (Dtr) in DMSO, 10 mM solution of diphenhydramine (DPA) in DMSO, 10 mM solution of omeprazole (Ome) in DMSO, 10 mM solution of verapamil (Ver) in DMSO, and 10 mM of an inverse agonist compound in DMSO to 0.25 mM solution each with acetonitrile/water (70/30). • 2. Buffer: 100 mM potassium phosphate Buffer (PBS) at pH 7.4 • 3. Liver microsomes (20 mg/ml): Thaw in 37° C. water bath quickly • 4. 2000 μL: of NADPH regenerating system (1.3 mM). Place this system on ice before use:
(§4) • 5. […] The test compound concentration in the wells, measured by LC-MS/MS, represents the concentration at time=0. • f) To determine the test compound concentration when t≠0, pre-incubate the NADPH regenerating system and the incubation plate containing the remaining 320 μL of incubation mixture (microsomes protein and test compound) for 5 minutes at 37° C. • g) Start the incubation reaction by adding 80 μL NADPH regenerating system to each well containing the remaining 320 μL incubation mixture. • h) After 10 min., 30 min., and 90 min. of incubation at 37° C., transfer 100 μL of the incubation mixture (microsomes protein, test compound, and NADPH) into the wells of a stop plate pre-filled with 300 μL of the cold quench solution. Shake well. • i) Centrifuge the stop plate at 5000×g for 10 minutes. Collect and dilute the supernatant 3 times with distilled water. Sample and analyze the test compound concentration for all the wells by LC-MS/MS. Animal PK Studies via i.v. (intravenous), p.o. (orally) and s.c. (subcutaneous) administrations

[2] = Metabolic stability in mouse liver microsomes; format: in vitro ADME
Experimental: as §1, §2, §3, §4

[3] = target: T1, recombinant human ghrelin receptor (HEK293/GRLN) (Homo sapiens, UniProt Q92847); assay: Ghrelin inverse agonist potency (EC50) with IP-1 (IP-One HTRF) assay; format: cell-based; conditions: IP-1 assay, HEK293/GRLN; read-out: Activity EC50 (ghrelin inverse agonist potency)
T1 construct: expressed in transfected cells
T1 sequence (Q92847 whole entry): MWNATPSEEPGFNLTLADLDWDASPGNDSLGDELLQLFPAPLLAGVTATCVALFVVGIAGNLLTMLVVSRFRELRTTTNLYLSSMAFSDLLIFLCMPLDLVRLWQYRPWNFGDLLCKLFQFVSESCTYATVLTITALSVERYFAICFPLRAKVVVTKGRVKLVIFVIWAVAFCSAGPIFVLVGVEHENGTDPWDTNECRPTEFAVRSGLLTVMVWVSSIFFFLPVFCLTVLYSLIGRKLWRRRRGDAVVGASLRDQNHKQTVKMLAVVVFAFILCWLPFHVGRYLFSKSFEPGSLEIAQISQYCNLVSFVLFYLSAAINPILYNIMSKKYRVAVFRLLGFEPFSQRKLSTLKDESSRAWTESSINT
Method in brief: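 IP-1 accumulation was measured by HTRF (IP1-d2/Tb-cryptate, 620/665 nm read after 1 hour at room temperature) following 1 hour of compound treatment at 37° C. Cells were HEK293 stably expressing human ghrelin receptor, plated a day earlier on Matrigel. Inverse agonist potency was reported as EC50.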

[4] = target: T2, GHSR-1a (HEK293/GHSR1a cell line) (Homo sapiens, UniProt Q92847); assay: Ghrelin agonist potency (EC50) with calcium FLIPR assay; format: cell-based; conditions: HEK293/GHSR1a, read-out: Activity EC50/EMax: EC50 (ghrelin agonist potency)
T2 construct: expressed in transfected cells; host or cells: HEK293/GHSR1a cell line
T2 sequence (Q92847 whole entry): as above
Method in brief: (§5)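 In this assay, compound alone assesses agonism, while compound co-added with ghrelin at 10 nM assesses antagonism. In both modes the calcium-dye signal is tracked for 2 min from t=20 sec.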

[5] = target: T2, GHSR-1a (HEK293/GHSR1a cell line); assay: Ghrelin antagonist potency (IC50) with calcium FLIPR assay, ghrelin 10 nM; format: cell-based; conditions: HEK293/GHSR1a, ghrelin 10 nM, read-out: Activity IC50 (ghrelin antagonist potency)
Method in brief: as §5

SMILES	Metabolic Stability Study H = human [1] [µL/min/mg]	Metabolic Stability Study M = mouse [2] [µL/min/mg]	EC50 [3] [nM]	EC50 [4] [nM]	IC50 [5] [nM]
CC(NC(=O)Nc1ccc(S(=O)(=O)Cc2ccc3c(c2)CN(C)C3)cc1)c1ccccc1Cl (centres unmarked) [H1267, 1-(1-(2-chlorophenyl)ethyl)-3-(4-(((2-methylisoindolin-5-yl)methyl)sulfonyl)phenyl)urea]	109.8	147.8	4.7	> 30000	9.2
CC(NC(=O)Nc1ccc(S(=O)(=O)Cc2ccc3c(c2)CN(C)C3)cc1)c1ccc(F)cc1 (centres unmarked) [H1268, 1-(1-(4-fluorophenyl)ethyl)-3-(4-(((2-methylisoindolin-5-yl)methyl)sulfonyl)phenyl)urea]	108.7	60.5	29.9	> 30000	83.2
CC(NC(=O)Nc1ccc(S(=O)(=O)Cc2ccc3c(c2)CNC3)cc1)c1cccc(F)c1 (centres unmarked) [H1269, 1-(1-(3-fluorophenyl)ethyl)-3-(4-((isoindolin-5-ylmethyl)sulfonyl)phenyl)urea]	25.7	23.6	8.8	> 30000	24
CC(NC(=O)Nc1ccc(S(=O)(=O)Cc2ccc3c(c2)CNC3)cc1)c1ccccc1F (centres unmarked) [H1272, 1-(1-(2-fluorophenyl)ethyl)-3-(4-((isoindolin-5-ylmethyl)sulfonyl)phenyl)urea]	18.4	18.6	5.3	> 30000	23.5
CC(NC(=O)Nc1ccc(S(=O)(=O)Cc2ccc(CN3CCCC3)cc2)cc1)c1ccccc1 (centres unmarked) [H1276, 1-(1-phenylethyl)-3-(4-((4-(pyrrolidin-1-ylmethyl)benzyl)sulfonyl)phenyl)urea]	109.7	247	23.4	> 30000	76
CCc1ccc(Cl)c(C(C)NC(=O)Nc2ccc(S(=O)(=O)Cc3ccc4c(c3)CNC4)cc2)c1 (centres unmarked) [H1281, 1-(1-(2-chloro-5-ethylphenyl)ethyl)-3-(4-((isoindolin-5-ylmethyl)sulfonyl)phenyl)urea]	63.8	47.8	15.3	> 30000	39
CCc1ccc(Cl)c(C(C)NC(=O)Nc2ccc(S(=O)(=O)Cc3ccc4c(c3)CN(C)C4)cc2)c1 (centres unmarked) [H1286, 1-(1-(2-chloro-5-ethylphenyl)ethyl)-3-(4-(((2-methylisoindolin-5-yl)methyl)sulfonyl)phenyl)urea]	251.8	162.4	24.3	> 30000	39.5
C[C@H](NC(=O)Nc1ccc(S(=O)(=O)Cc2ccc3c(c2)CN(C)C3)cc1)c1ccccc1 [H1299, (S)-1-(4-(((2-methylisoindolin-5-yl)methyl)sulfonyl)phenyl)-3-(1-phenylethyl)urea]	71.5	50.9	102	> 30000	192
CC(NC(=O)Nc1ccc(S(=O)(=O)Cc2ccc3c(c2)CN(C)C3)cc1)c1cccc2ccccc12 (centres unmarked) [H1302, 1-(4-(((2-methylisoindolin-5-yl)methyl)sulfonyl)phenyl)-3-(1-(naphthalen-1-yl)ethyl)urea]	201.7	164.1	4.7	> 30000	5.7
C[C@H](NC(=O)Nc1ccc(S(=O)(=O)Cc2ccc3c(c2)CCNCC3)cc1)c1ccccc1 [H1306, (S)-1-(1-phenylethyl)-3-(4-(((2,3,4,5-tetrahydro-1H-benzo[d]azepin-7-yl)methyl)sulfonyl)phenyl)urea]	31.2	19.6	74.6	> 30000	62
